Test results: ChEMBL document CHEMBL1201862, “PubChem BioAssay data set” (2004)
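48-hour exposure; five concentrations; linearly interpolated endpoints. GI50 marks 50% less growth.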 Active and inactive are the calls of the source. Rule as the data show it: active = GI50 up to about 1.1 µM and inactive = higher.

How the values were obtained:
Assay in all cases: NCI-60 cell line screen, 48 h
LOX IMVI = test system: LOX IMVI
HL-60 = test system: HL-60
SF-295 = test system: SF-295
EKVX = test system: EKVX
UO-31 = test system: UO-31
SW-620 = test system: SW-620
NCI-H460 = test system: NCI-H460
HOP-62 = test system: HOP-62
SK-MEL-5 = test system: SK-MEL-5
NCI/ADR-RES = test system: NCI/ADR-RES
MOLT-4 = test system: MOLT-4
HCT-15 = test system: HCT-15
TK-10 = test system: TK-10
SK-OV-3 = test system: SK-OV-3
UACC-257 = test system: UACC-257
DU-145 = test system: DU-145
HCC 2998 = test system: HCC 2998
SK-MEL-28 = test system: SK-MEL-28
Malme-3M = test system: Malme-3M
NCI-H23 = test system: NCI-H23

Compound | GI50 (LOX IMVI) | GI50 (HL-60) | GI50 (SF-295) | GI50 (EKVX) | GI50 (UO-31) | GI50 (SW-620) | GI50 (NCI-H460) | GI50 (HOP-62) | GI50 (SK-MEL-5) | GI50 (NCI/ADR-RES) | GI50 (MOLT-4) | GI50 (HCT-15) | GI50 (TK-10) | GI50 (SK-OV-3) | GI50 (UACC-257) | GI50 (DU-145) | GI50 (HCC 2998) | GI50 (SK-MEL-28) | GI50 (Malme-3M) | GI50 (NCI-H23)
O=C1CS/C(=N/N=C/c2cn(Cc3ccc(Cl)cc3Cl)c3ccccc23)N1 | 25.2 µM (inactive) | > 100 µM (inactive) | 64.4 µM (inactive) | 20.9 µM (inactive) | 31.8 µM (inactive) | 27.5 µM (inactive) | 56.4 µM (inactive) | 27.6 µM (inactive) | 35.6 µM (inactive) | 24.5 µM (inactive) | 38.2 µM (inactive) | 37.3 µM | > 100 µM (inactive) | > 100 µM (inactive) | 67.8 µM (inactive) | 53.6 µM (inactive) | 32.2 µM (inactive) | 50.4 µM (inactive) | 76.4 µM (inactive) | 58.3 µM (inactive)
COc1ccc(-c2csc(-n3c(-c4ccccc4)nc4c(Br)cc(Br)cc4c3=O)n2)cc1 | 29.9 µM (inactive) | 20.2 µM (inactive) | 25.2 µM (inactive) | 4.52 µM (inactive) | 23.4 µM (inactive) | 33.6 µM (inactive) | 34.2 µM (inactive) | 40.1 µM (inactive) | 18.2 µM (inactive) | 19.6 µM (inactive) | 17.8 µM (inactive) | 19.3 µM | 51.5 µM (inactive) | 28.1 µM (inactive) | 30.3 µM (inactive) | 39.2 µM (inactive) | 28.1 µM (inactive) | 23.2 µM (inactive) | 26 µM (inactive) | 14.4 µM (inactive)
CC1N[B@@-](C)(c2ccc(C(F)(F)F)cc2)OC1c1ccccc1 (stereo not given in full) | 98.2 µM (inactive) | 12.7 µM (inactive) | > 100 µM (inactive) | 41.4 µM (inactive) | 34.7 µM (inactive) | > 100 µM (inactive) | > 100 µM (inactive) | > 100 µM (inactive) | 87.7 µM (inactive) | > 100 µM (inactive) | 29.9 µM (inactive) | 49.1 µM | > 100 µM (inactive) | > 100 µM (inactive) | > 100 µM (inactive) | > 100 µM (inactive) | > 100 µM (inactive) | > 100 µM (inactive) | 86.3 µM (inactive) | > 100 µM (inactive)
C[C@@H]1[C@H](C)N1CC(O)Cn1ccnc1[N+](=O)[O-] (stereo not given in full) | > 100 µM (inactive) | > 100 µM (inactive) | > 100 µM (inactive) | > 100 µM (inactive) | > 100 µM (inactive) | > 100 µM (inactive) | > 100 µM (inactive) | > 100 µM (inactive) | > 100 µM (inactive) | > 100 µM (inactive) | > 100 µM (inactive) | > 100 µM | > 100 µM (inactive) | > 100 µM (inactive) | > 100 µM (inactive) | > 100 µM (inactive) | > 100 µM (inactive) | > 100 µM (inactive) | > 100 µM (inactive) | > 100 µM (inactive)
[N-]=[N+]=NC1C(O)C(CO)OC1n1cnc2c(N)ncnc21 (stereo not given) | 24.7 µM (inactive) | 0.522 µM (active) | 44.1 µM (inactive) | > 100 µM (inactive) | 36.6 µM (inactive) | 60.5 µM (inactive) | 6.34 µM (inactive) | 84.9 µM (inactive) | > 100 µM (inactive) | 27.1 µM (inactive) | 9.51 µM (inactive) | > 100 µM | > 100 µM (inactive) | 87.5 µM (inactive) | > 100 µM (inactive) | 3.04 µM (inactive) | 29.7 µM (inactive) | > 100 µM (inactive) | > 100 µM (inactive) | 30.5 µM (inactive)
CC[C@@]1(OC(=O)C(N)CCCCN)C(=O)OCc2c1cc1n(c2=O)Cc2cc3ccccc3nc2-1 (stereo not given in full) | 0.0171 µM (active) | < 0.0132 µM (active) | < 0.0109 µM (active) | 0.753 µM (active) | 0.0263 µM (active) | 0.04 µM (active) | < 0.01 µM (active) | < 0.0148 µM (active) | 0.0377 µM (active) | 0.0354 µM (active) | < 0.01 µM (active) | 0.248 µM | 2.55 µM (inactive) | 0.105 µM (active) | 0.143 µM (active) | < 0.0199 µM (active) | 0.41 µM (active) | 0.442 µM (active) | 0.196 µM (active) | 0.0219 µM (active)
COc1cn2c(cc1=O)COc1ccc(-c3ccccc3)cc1-2 | 36.9 µM (inactive) | 41.3 µM (inactive) | > 78.2 µM (inactive) | 36 µM (inactive) | 28.4 µM (inactive) | > 100 µM (inactive) | 37.6 µM (inactive) | 83.6 µM (inactive) | 23.5 µM (inactive) | 49.9 µM (inactive) | 44.5 µM (inactive) | 54.5 µM | 20 µM (inactive) | > 73.8 µM (inactive) | 41 µM (inactive) | 52.4 µM (inactive) | 46.9 µM (inactive) | > 100 µM (inactive) | 42.6 µM (inactive) | 45.5 µM (inactive)
COC(=O)C#Cc1cccc(OC)c1OC | 33.7 µM (inactive) | 33 µM (inactive) | 40.5 µM (inactive) | 19.5 µM (inactive) | 20.4 µM (inactive) | 47 µM (inactive) | 48.1 µM (inactive) | 98.2 µM (inactive) | 29.6 µM (inactive) | 30.3 µM (inactive) | 14 µM (inactive) | 32.4 µM | 41.8 µM (inactive) | 48 µM (inactive) | > 100 µM (inactive) | 88.1 µM (inactive) | 24.4 µM (inactive) | 38.9 µM (inactive) | 28 µM (inactive) | 41.3 µM (inactive)
CC(NC(=O)OC(C)(C)C)C(=O)NC(Cc1ccccc1)C(=O)NCC(=O)ON=C1CCCC1 (stereo not given) | > 100 µM (inactive) | > 100 µM (inactive) | > 100 µM (inactive) | > 100 µM (inactive) | 65.8 µM (inactive) | > 100 µM (inactive) | > 100 µM (inactive) | > 100 µM (inactive) | > 100 µM (inactive) | > 100 µM (inactive) | 41.9 µM (inactive) | > 100 µM | > 100 µM (inactive) | > 100 µM (inactive) | > 100 µM (inactive) | > 100 µM (inactive) | 89.7 µM (inactive) | > 100 µM (inactive) | > 100 µM (inactive) | > 100 µM (inactive)
O=S(=O)(Nc1nccs1)c1ccc(Nc2nc(-c3cccs3)nc3ccc(I)cc23)cc1 | 14.6 µM (inactive) | 42.3 µM (inactive) | 11.8 µM (inactive) | 2.22 µM (inactive) | 17 µM (inactive) | 13 µM (inactive) | 9.73 µM (inactive) | 16.3 µM (inactive) | 8.18 µM (inactive) | > 75.5 µM (inactive) | 14.2 µM (inactive) | 32.1 µM | 9.51 µM (inactive) | 24.7 µM (inactive) | 4.49 µM (inactive) | 9.48 µM (inactive) | 13.2 µM (inactive) | 21.4 µM (inactive) | 14.3 µM (inactive) | 37.4 µM (inactive)
N=C(N)N/N=C/c1c(-c2ccc(Cl)c([N+](=O)[O-])c2)nc2sccn12 | 2.22 µM (inactive) | 1.96 µM (inactive) | 1.75 µM (inactive) | 1.85 µM (inactive) | 1.85 µM (inactive) | 1.53 µM (inactive) | 1.79 µM (inactive) | 1.85 µM (inactive) | 1.73 µM (inactive) | > 100 µM (inactive) | 1.71 µM (inactive) | 2.21 µM | 1.76 µM (inactive) | 1.78 µM (inactive) | 1.91 µM (inactive) | 1.78 µM (inactive) | 1.6 µM (inactive) | 4.08 µM (inactive) | 1.91 µM (inactive) | 1.85 µM (inactive)
OC1CC2CCC(C1)N2CCCN1c2ccccc2Sc2ccc(Cl)cc21 (stereo not given) | 1.7 µM (inactive) | 2.26 µM (inactive) | 1.75 µM (inactive) | 3.72 µM (inactive) | 2.46 µM (inactive) | 2.43 µM (inactive) | 1.75 µM (inactive) | 4.73 µM (inactive) | 1.73 µM (inactive) | 2.36 µM (inactive) | 2.29 µM (inactive) | 2.49 µM | 1.66 µM (inactive) | 3.37 µM (inactive) | 1.29 µM (inactive) | 3.81 µM (inactive) | 0.338 µM (active) | 1.81 µM (inactive) | 1.87 µM (inactive) | 3.13 µM (inactive)
